Results taken from patent US11426362B2, “Oral cannabinoid formulations” (GW Research Limited, priority 2017, dated 2022).

Key:
[1] = Antioxidant screening in the formulation; format: physicochemical; conditions: alpha-tocopherol at 0.5% concentration in surfactant phase; ascorbic acid in aqueous phase
Description: Alpha tocopherol and ascorbic acid were screened for their effectiveness for use within the formulation. Ascorbic acid was used in the aqueous phase whereas the alpha tocopherol was used in the surfactant phase in terms of order of addition.

[2] = cited from earlier work
[3] = oral and parenteral administration in animals; cited from earlier work

Structure (SMILES) | appearance of solutions containing the antioxidant [1] | acute toxicity [3] | other results
O=C1O[C@H]([C@@H](O)CO)C(O)=C1O [ascorbic acid] | clear colourless solutions | – | –
CCCOC(=O)c1ccc(O)cc1 [propyl paraben, propyl parahydroxybenzoate] | – | relatively non-toxic | permitted daily exposure (PDE) ([2]; adults and pediatric patients): 2 mg/kg/day
COC(=O)c1ccc(O)cc1 [methylparaben, methyl parahydroxybenzoate] | – | practically non-toxic | –
OC[C@H]1O[C@H](O[C@]2(CCl)O[C@H](CCl)[C@@H](O)[C@@H]2O)[C@H](O)[C@@H](O)[C@H]1Cl [Sucralose] | – | – | ADI limit ([2]; pediatric population): 5 mg/kg/day
Cc1c(C)c2c(c(C)c1O)CC[C@@](C)(CCC[C@H](C)CCC[C@H](C)CCCC(C)C)O2 [alpha-tocopherol] | hazy | – | –
